# Data reported in ChEMBL document CHEMBL3885861, “Open TG-GATES”.
# Species on record: Rattus norvegicus
# Test: Open TG-GATES - Regimen: Daily Repeat
# Assay type: toxicity, organism-based, Sprague-Dawley
# Design: regimen Daily Repeat, gender Male, age 6 weeks
# Settings: in vivo, po, 0 mg/kg, route gavage, dose level Control; for APTT / Bas / Eos / Fbg / Hb / Ht / Lym / MCH / MCHC / MCV / Mono / Neu / PT / Plat / RBC / Ret / WBC: tissue Blood; for KIDNEY_L / KIDNEY_R / KIDNEY_TOTAL: tissue Kidney; for LIVER: tissue Liver; for A/G / ALP / ALT / AST / BUN / CRE / Ca / Cl / DBIL / GLC / IP / K / LDH / Na / PL / RALB / TBIL / TC / TG / TP / gamma-GTP: tissue Plasma
smiles,measurement,setting,value
CCN1CCCC1CNC(=O)c1cc(S(N)(=O)=O)ccc1OC (configuration not stated) [SULPIRIDE],TERMINAL_BW,"72 h, time 3 day",237.8 g
same,APTT,"72 h, time 3 day",16.8 s
same,Bas,"72 h, time 3 day",0%
same,Eos,"72 h, time 3 day",1%
same,Fbg,"72 h, time 3 day",286.8 mg/dL
same,Hb,"72 h, time 3 day",13.4 g/dL
same,Ht,"72 h, time 3 day",41.1%
same,Lym,"72 h, time 3 day",81.6%
same,MCH,"72 h, time 3 day",20.7 pg
same,MCHC,"72 h, time 3 day",32.7%
same,MCV,"72 h, time 3 day",63.2 fL
same,Mono,"72 h, time 3 day",2.8%
same,Neu,"72 h, time 3 day",14%
same,PT,"72 h, time 3 day",12.9 s
same,Plat,"72 h, time 3 day",117.1 x10_4/uL
same,RBC,"72 h, time 3 day",650.4 x10_4/ul
same,Ret,"72 h, time 3 day",6.9%
same,WBC,"72 h, time 3 day",82.7 x10_2/uL
same,KIDNEY_L,"72 h, time 3 day",1.1 g
same,KIDNEY_R,"72 h, time 3 day",1 g
same,KIDNEY_TOTAL,"72 h, time 3 day",2.1 g
same,LIVER,"72 h, time 3 day",11.3 g
same,A/G,"72 h, time 3 day",0.9
same,ALP,"72 h, time 3 day",1602.4 IU/L
same,ALT,"72 h, time 3 day",44.8 IU/L
same,AST,"72 h, time 3 day",67.2 IU/L
same,BUN,"72 h, time 3 day",15.8 mg/dL
same,CRE,"72 h, time 3 day",0.2 mg/dL
same,Ca,"72 h, time 3 day",11.1 mg/dL
same,Cl,"72 h, time 3 day",104.4 meq/L
same,DBIL,"72 h, time 3 day",0.012 mg/dL
same,GLC,"72 h, time 3 day",188.8 mg/dL
same,IP,"72 h, time 3 day",7.3 mg/dL
same,K,"72 h, time 3 day",4.3 meq/L
same,LDH,"72 h, time 3 day",73.8 IU/L
same,Na,"72 h, time 3 day",140.2 meq/L
same,PL,"72 h, time 3 day",153.2 mg/dL
same,RALB,"72 h, time 3 day",2.7 g/dL
same,TBIL,"72 h, time 3 day",0.054 mg/dL
same,TC,"72 h, time 3 day",79.6 mg/dL
same,TG,"72 h, time 3 day",108.6 mg/dL
same,TP,"72 h, time 3 day",5.7 g/dL
same,gamma-GTP,"72 h, time 3 day",1 IU/L
same,TERMINAL_BW,"[…], time 7 day",264.7 g
same,TERMINAL_BW,"[…], time 14 day",315.8 g
same,TERMINAL_BW,"[…], time 28 day",375.6 g
same,APTT,"[…], time 7 day",16.6 s
same,Bas,"[…], time 7 day",0.4%
same,Eos,"[…], time 7 day",1%
same,Fbg,"[…], time 7 day",286.6 mg/dL
same,Hb,"[…], time 7 day",13.9 g/dL
same,Ht,"[…], time 7 day",42%
same,Lym,"[…], time 7 day",82%
same,MCH,"[…], time 7 day",20.7 pg
same,MCHC,"[…], time 7 day",33.2%
same,MCV,"[…], time 7 day",62.5 fL
same,Mono,"[…], time 7 day",2.4%
same,Neu,"[…], time 7 day",14%
same,PT,"[…], time 7 day",12.8 s
same,Plat,"[…], time 7 day",131 x10_4/uL
same,RBC,"[…], time 7 day",672.6 x10_4/ul
same,Ret,"[…], time 7 day",5.3%
same,WBC,"[…], time 7 day",110.2 x10_2/uL
same,APTT,"[…], time 14 day",17.2 s
same,Bas,"[…], time 14 day",0.4%
same,Eos,"[…], time 14 day",0.8%
same,Fbg,"[…], time 14 day",289 mg/dL
same,Hb,"[…], time 14 day",14.6 g/dL
same,Ht,"[…], time 14 day",43.8%
same,Lym,"[…], time 14 day",77.4%
same,MCH,"[…], time 14 day",20 pg
same,MCHC,"[…], time 14 day",33.3%
same,MCV,"[…], time 14 day",60 fL
same,Mono,"[…], time 14 day",2.4%
same,Neu,"[…], time 14 day",18.6%
same,PT,"[…], time 14 day",13 s
same,Plat,"[…], time 14 day",112.7 x10_4/uL
same,RBC,"[…], time 14 day",731.4 x10_4/ul
same,Ret,"[…], time 14 day",3.9%
same,WBC,"[…], time 14 day",115 x10_2/uL
same,APTT,"[…], time 28 day",19.6 s
same,Bas,"[…], time 28 day",0%
same,Eos,"[…], time 28 day",1.2%
same,Fbg,"[…], time 28 day",286.6 mg/dL
same,Hb,"[…], time 28 day",15.8 g/dL
same,Ht,"[…], time 28 day",46%
same,Lym,"[…], time 28 day",77.4%
same,MCH,"[…], time 28 day",19.1 pg
same,MCHC,"[…], time 28 day",34.3%
same,MCV,"[…], time 28 day",55.6 fL
same,Mono,"[…], time 28 day",1.8%
same,Neu,"[…], time 28 day",19%
same,PT,"[…], time 28 day",12.9 s
same,Plat,"[…], time 28 day",119.5 x10_4/uL
same,RBC,"[…], time 28 day",827.2 x10_4/ul
same,Ret,"[…], time 28 day",2.4%
same,WBC,"[…], time 28 day",106.9 x10_2/uL
same,KIDNEY_L,"[…], time 7 day",1.1 g
same,KIDNEY_R,"[…], time 7 day",1.1 g
same,KIDNEY_TOTAL,"[…], time 7 day",2.2 g
same,KIDNEY_L,"[…], time 14 day",1.2 g
same,KIDNEY_R,"[…], time 14 day",1.2 g
same,KIDNEY_TOTAL,"[…], time 14 day",2.4 g
same,KIDNEY_L,"[…], time 28 day",1.2 g
same,KIDNEY_R,"[…], time 28 day",1.2 g
same,KIDNEY_TOTAL,"[…], time 28 day",2.5 g
same,LIVER,"[…], time 7 day",12.3 g
same,LIVER,"[…], time 14 day",13.1 g
same,LIVER,"[…], time 28 day",14.3 g
same,A/G,"[…], time 7 day",0.9
same,ALP,"[…], time 7 day",1380.6 IU/L
same,ALT,"[…], time 7 day",44.2 IU/L
same,AST,"[…], time 7 day",64.8 IU/L
same,BUN,"[…], time 7 day",16 mg/dL
same,CRE,"[…], time 7 day",0.2 mg/dL
same,Ca,"[…], time 7 day",10.8 mg/dL
same,Cl,"[…], time 7 day",104.4 meq/L
same,DBIL,"[…], time 7 day",0.016 mg/dL
same,GLC,"[…], time 7 day",181.6 mg/dL
same,IP,"[…], time 7 day",7.7 mg/dL
same,K,"[…], time 7 day",4.5 meq/L
same,LDH,"[…], time 7 day",64.4 IU/L
same,Na,"[…], time 7 day",141.2 meq/L
same,PL,"[…], time 7 day",152.8 mg/dL
same,RALB,"[…], time 7 day",2.6 g/dL
same,TBIL,"[…], time 7 day",0.052 mg/dL
same,TC,"[…], time 7 day",76.8 mg/dL
same,TG,"[…], time 7 day",118 mg/dL
same,TP,"[…], time 7 day",5.5 g/dL
same,gamma-GTP,"[…], time 7 day",1 IU/L
same,A/G,"[…], time 14 day",0.8
same,ALP,"[…], time 14 day",1582.6 IU/L
same,ALT,"[…], time 14 day",38.8 IU/L
same,AST,"[…], time 14 day",68.8 IU/L
same,BUN,"[…], time 14 day",17 mg/dL
same,CRE,"[…], time 14 day",0.2 mg/dL
same,Ca,"[…], time 14 day",11 mg/dL
same,Cl,"[…], time 14 day",103.2 meq/L
same,DBIL,"[…], time 14 day",0.012 mg/dL
same,GLC,"[…], time 14 day",193.8 mg/dL
same,IP,"[…], time 14 day",7.4 mg/dL
same,K,"[…], time 14 day",3.7 meq/L
same,LDH,"[…], time 14 day",67 IU/L
same,Na,"[…], time 14 day",141.2 meq/L
same,PL,"[…], time 14 day",146.2 mg/dL
same,RALB,"[…], time 14 day",2.6 g/dL
same,TBIL,"[…], time 14 day",0.056 mg/dL
same,TC,"[…], time 14 day",68.2 mg/dL
same,TG,"[…], time 14 day",133.4 mg/dL
same,TP,"[…], time 14 day",5.8 g/dL
same,gamma-GTP,"[…], time 14 day",1 IU/L
same,A/G,"[…], time 28 day",0.8
same,ALP,"[…], time 28 day",975.6 IU/L
same,ALT,"[…], time 28 day",38.2 IU/L
same,AST,"[…], time 28 day",63.8 IU/L
same,BUN,"[…], time 28 day",17.2 mg/dL
same,CRE,"[…], time 28 day",0.3 mg/dL
same,Ca,"[…], time 28 day",10.5 mg/dL
same,Cl,"[…], time 28 day",104.8 meq/L
same,DBIL,"[…], time 28 day",0.012 mg/dL
same,GLC,"[…], time 28 day",169.2 mg/dL
same,IP,"[…], time 28 day",6.8 mg/dL
same,K,"[…], time 28 day",3.7 meq/L
same,LDH,"[…], time 28 day",61.8 IU/L
same,Na,"[…], time 28 day",143.6 meq/L
same,PL,"[…], time 28 day",147 mg/dL
same,RALB,"[…], time 28 day",2.8 g/dL
same,TBIL,"[…], time 28 day",0.062 mg/dL
same,TC,"[…], time 28 day",66.4 mg/dL
same,TG,"[…], time 28 day",167 mg/dL
same,TP,"[…], time 28 day",6.1 g/dL
same,gamma-GTP,"[…], time 28 day",1 IU/L
